# According to patent publication US20260364072A1, “METHODS FOR PROMOTING EXPANSION OF HUMAN CD34+ CELLS IN VIVO AND FOR PROMOTING NEURAL REGENERATION” (THE REGENTS OF THE UNIVERSITY OF CALIFORNIA, priority 2023, published 2026):
# What was measured:
# [1] = test system: CD34+Lin- cells (sAML50261); assay: sAML50261 PDX mice, flow cytometry of PB, SP, BM; format: in vivo, human cells in Rag2-/-gc-/- mice; conditions: 10 mg/kg, intravenously, twice a week for 2 weeks
# Procedure: The mouse models were screened by staining the PB of each mouse with a human CD45 mAb. Mice with a threshold of human CD45^+ cells >1% were included in the treatment cohort for Rebecchini. The dosing plan involved administering Rebecsinib at a dose of 10 mg/kg, intravenously, twice a week for 2 weeks, with a total of 5 doses. Single cells were isolated from the mouse organs, including PB, SP, and BM, and subjected to staining with human stem cell markers and lineage cell markers.
# [2] = Rabbit single-dose toxicokinetic study; format: in vivo, New Zealand white rabbits; conditions: IV bolus
# Procedure: Pre-IND PD and toxicokinetic (TK) studies (FIG. 4D) were enabled by scalable Rebecsinib synthesis^34 and development of an optimized formulation for in vivo biodistribution (5% w/v EtOH, 5% w/v Kolliphor HS15 in 0.9% Sodium Chloride). In PK studies, Rebecsinib was detectable in rat, rabbit, and non-human primate (NHP) plasma following IV bolus administration. In rat TK studies, Rebecsinib was quantifiable up to 1-hour post-dose at 1 mg/kg and up to 4 hours post-dose at 3, 5, and 8 mg/kg (FIG. 4E). […] Rebecsinib T1/2 values were 0.342, 0.447, 0.313, and 0.530 hours at 1, 3, 5, and 8 mg/kg, respectively. […] Following 3, 10, and 20 mg/kg boluses, Rebecsinib was quantifiable in plasma 1 hour post-dose and could be detected up to 8 hours post-dosing with 40 mg/kg (FIG. 4F). […] Following 3, 10, 15, and 20 mg/kg of Rebecsinib, quantifiable plasma concentrations of Rebecsinib were observed through 8 hrs post-dose (FIG. 4G).
# (FIG. 29D) Schematic diagram outlining multispecies toxicokinetic (TK) and pharmacodynamic studies in mammalian species treated in vivo with a single dose of Rebecsinib. Toxicokinetic analyses were performed in rats (n=6 per sex, per group), rabbits (n=2 per sex, per group), and non-human primates (NHPs, n=1 per sex, per group) and pharmacodynamic splice isoform quantification studies were performed in peripheral blood mononuclear cells (PBMCs) from NHP.
# (FIG. 29E, FIG. 29F) For toxicokinetic analyses, rats (FIG. 29E) and rabbits (FIG. 29F) were given a single injection of Rebecsinib at 1-40 mg/kg, or vehicle control, and blood samples were drawn at regular intervals to determine plasma concentrations of the compound over 8 hr after treatment.
# Single-dose TK studies were performed in Sprague Dawley rats (Charles River Labs, South San Francisco, CA), New Zealand white rabbits (BASi/Inotiv, West Lafayette, IN), and cynomolgus monkeys (BASi/Inotiv). Rat and rabbit studies included toxicology analyses, quantification of plasma levels of Rebecsinib, and necropsies to evaluate organ integrity after treatment. For NHP studies, health and ophthalmological evaluations were performed before and after dosing with Rebecsinib, and blood samples were collected for quantification of plasma levels of Rebecsinib and biomarker studies in PBMCs from treated and control animals. All monkeys were returned to the animal colony after the end of the observation period. Toxicokinetic values including mean plasma concentrations and t1/2 values were calculated according to CRO-approved protocols (Charles River and BASi).
# [3] = test system: ADAR1; assay: ADAR1 expression by qRT-PCR in TF1a cells; format: cell-based, human; conditions: TF1a AML cell line; 0.1 μM, 4 hours
# Description: For lentivirus-mediated knockdown of human ADAR1 in ADAR1 activation and RNA editing biomarker studies of the nanoluc-GFP reporter and endogenous transcripts, human leukemia cells were stably transduced with the lentiviral shRNA vectors targeting ADAR1 (shADAR1) or scrambled control (shCtrl) to ablate endogenous ADAR1 expression. The shRNA plasmids targeting ADAR1 (shADAR1) as well as the scrambled control (shCtrl) were purchased from VectorBuilder (Chicago, IL) (shCtrl: […] (SEQ ID NO:3) and shADAR1: […]) (SEQ ID NO:4). […] Viral titers were assessed by qRT-PCR and transduction efficiency was tested in 293T cells. […]
# For quantitative analysis of splice isoform expression, RNA editing rates, and whole gene expression by qRT-PCR, cells or tissue fragments were harvested in RNA lysis buffer and total RNA was extracted using RNeasy mini or micro extraction kits (QIAGEN, Germantown, MD) following the manufacturer's protocol including a DNase incubation step to digest any trace genomic DNA present. Levels of ADAR1 variants and LSC-specific transcripts were quantified by qRT-PCR as previously described.^14 RNA-editing site-specific qRT-PCR (RESSqPCR) was performed for variants in AZIN1 transcripts.^53 Additional species-specific primers were also designed to quantify intron retention rates in cells treated with Rebecsinib as a biomarker of response to RNA splicing modulation. […]
structure (smiles),measurement,setting,value
CC[C@H](OC)[C@@H](C)[C@H]1O[C@@H]1[C@@H](O)[C@H](C)/C=C/C=C(\C)[C@H]1OC(=O)C[C@H](O)CC[C@@](C)(O)[C@@H](OC(C)=O)/C=C/[C@@H]1C [Rebecsinib],"human CD45+ cells in PB, BM, and SP",[1],preserved human CD45^+ cells
same,CD34+Lin- cell population in SP,"[1]; p=0.0006, Student's t-test",significant inhibition
same,CD34+Lin- cell population in PB,"[1]; p=0.0015, Student's t-test",significant inhibition
same,time quantifiable in plasma post-dose,[2]; 3 mg/kg,1 h
same,time quantifiable in plasma post-dose,[2]; 10 mg/kg,1 h
same,time quantifiable in plasma post-dose,[2]; 20 mg/kg,1 h
same,last time detected in plasma post-dosing,[2]; 40 mg/kg,up to 8 hours
same,half-life,"[2]; plasma, read-out: plasma t1/2",7.2 to 53.4 min
same,ADAR1 expression as measured by qRT-PCR,[3],reduced ADAR1 expression
